Test results reported in BindingDB's records for doi:10.7270/Q2D798VP (Broad Institute, 2009).
pEC50: −log10 of the molar value.

Target: T1, Zinc finger protein mex-5 (Caenorhabditis elegans, UniProt Q9XUB2)
T1 sequence (Q9XUB2 whole entry): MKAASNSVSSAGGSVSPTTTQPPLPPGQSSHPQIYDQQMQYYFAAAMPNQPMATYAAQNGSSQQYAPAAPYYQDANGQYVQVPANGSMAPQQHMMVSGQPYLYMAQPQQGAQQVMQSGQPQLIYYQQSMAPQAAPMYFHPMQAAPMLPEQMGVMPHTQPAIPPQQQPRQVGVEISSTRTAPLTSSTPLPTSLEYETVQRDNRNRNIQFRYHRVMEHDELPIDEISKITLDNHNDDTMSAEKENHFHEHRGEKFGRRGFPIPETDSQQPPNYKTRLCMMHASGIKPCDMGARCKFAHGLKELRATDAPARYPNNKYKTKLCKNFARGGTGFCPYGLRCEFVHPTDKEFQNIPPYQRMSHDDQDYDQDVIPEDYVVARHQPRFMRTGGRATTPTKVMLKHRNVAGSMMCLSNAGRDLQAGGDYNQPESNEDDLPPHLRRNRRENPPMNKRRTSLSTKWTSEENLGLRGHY
Assay: potency of MEX-5 RNA-binding blockers – biochemical, C. elegans, fluorescence polarization, dose response (AID 1960)

SMILES | pEC50
Cc1nnc(=O)[nH]c1N=NCC1C=CC(=O)C([N+](=O)[O-])=C1 (stereo not drawn) [MLS000585487] | 4.18
O=C(N[N-][CH+]c1cc([N+](=O)[O-])ccc1N1CCCC1)c1ccccn1 [MLS000684285] | 4.15
Cc1cc(=O)n(-c2ccc(C(=O)O)c(N)c2)[nH]1 [MLS000690508] | 4.42
CC1=C(C#N)C(=O)N(C)C(=O)C1=CNNc1ccc(F)cc1 [MLS000702698] | < 3.52
O=C(c1ccccc1)[C@@H]1c2c(c(O)n(-c3ccc(F)cc3)c2O)C2CCCN21 (stereo partly drawn) [MLS000769629] | 4.39
O=C(O)c1ccccc1N=NCc1c(Sc2nnnn2-c2ccccc2)nc2ccccn2c1=O [MLS000775267] | 3.94
CCCCOC(=O)c1ccc(NN=C2C(=O)NC(=O)C(C#N)=C2C)cc1 [MLS000778379] | < 3.52
COc1cc(C2C3=C(CC(C)(C)CC3=O)OC(=N)C2C#N)ccc1OCCN1CCOCC1 (stereo not drawn) [MLS000779948] | < 3.52
C=c1c(C(=O)OC)c(O)c(=Cc2ccco2)n1-c1ccccc1 [MLS000780287] | 5.30
COc1ccc(C(C)N=Nc2nc3ccccc3nc2C)cc1OC (stereo not drawn) [MLS001029936] | 4.18
CC1(C)c2[nH]c3ccccc3c2Cc2c(O)n(-c3ccc(F)cc3F)c(=O)n21 [MLS001065879] | 4.33
O=C(/C=C/c1ccco1)NCC(=O)NNC1=c2ccccc2=NC1=O [MLS001075666] | 5.26
O=C1N=C(O)C(C2=c3cc([N+](=O)[O-])ccc3=NC2=O)S1 (stereo not drawn) [MLS001163276] | 4.67
CCOC(=O)C1=C(C)N=c2sc(=Cc3ccc(OCC(=O)O)cc3)c(=O)n2C1c1ccc(OC)cc1OC (stereo not drawn) [MLS001179101] | 4.22
N#CC1C(=N)OC2=C(C(=O)CCC2)C1c1cc2c(cc1Cl)OCO2 (stereo not drawn) [MLS001183950] | < 3.52
Cc1cc(=O)[nH]c(N=NCc2ccc(O)c(O)c2)n1 [MLS001194906] | 3.90
COc1ccc(N2C(=O)NC(=O)C(=Cc3cn(C)c4ccccc34)C2=O)cc1 [MLS001196573] | 5.94
COc1ccc(OC)c(N2C(=O)C(=Cc3ccco3)C(=O)NC2=S)c1 [MLS001197216] | 4.97
Cc1ccccc1NN=C1C(=O)N(C)c2ccccc21 [MLS001203477] | < 3.52
COc1ccc(N2C(=O)C(=Cc3ccco3)C(=O)NC2=S)cc1 [MLS001204507] | 5.41
CCOc1ccc(N2C(=O)C(=Cc3ccco3)C(=O)NC2=S)cc1 [MLS001205052] | 3.75
O=[N+]([O-])c1cc/c(=N\c2ccccc2O)c2no[nH]c1-2 [MLS001206694] | 4.55
COc1cc2c(cc1C1C3=C(CC(C)(C)CC3=O)OC(=N)C1C#N)OCO2 (stereo not drawn) [MLS001208406] | < 3.52

SMILES | pEC50
O=C1C([N+](=O)[O-])=CC(Cl)=CC1/C=N/NC(=O)C(O)(c1ccccc1)c1ccccc1 (stereo not drawn) [N''''-[(E)-(3-chloro-5-nitro-6-oxocyclohexa-2,4-dien-1-ylidene)methyl]-2-hydroxy-2,2-diphenylacetohydrazide] | 4.40
O=C(NN=Cc1c(O)n(-c2ccccc2)c(=S)[nH]c1=O)c1ccc(O)cc1 [N'-[(1Z)-(4,6-dioxo-1-phenyl-2-thioxohexahydropyrimidin-5-yl)methylene]-4-hydroxybenzohydrazide] | 4.20
O=C(N/N=C/C1C=C(Cl)C=C([N+](=O)[O-])C1=O)c1ccc2c(c1)OCO2 (stereo not drawn) [N'-[(E)-(3-chloranyl-5-nitro-6-oxidanylidene-cyclohexa-2,4-dien-1-ylidene)methyl]-1,3-benzodioxole-5-carbohydrazide] | 3.62
COc1cccc(C=NNC(=O)c2ccc(=O)[nH]n2)c1O [N'-[(E)-(5-methoxy-6-oxocyclohexa-2,4-dien-1-ylidene)methyl]-6-oxo-1H-pyridazine-3-carbohydrazide] | 4.90
O=C1NC(=O)N(CCc2ccc(F)cc2)C(=O)C1=CNNC(=O)c1ccccc1 [N'-[(E)-[1-[2-(4-fluorophenyl)ethyl]-2,4,6-trioxo-1,3-diazinan-5-ylidene]methyl]benzohydrazide] | < 3.52
O=C1NC(=O)N(CCc2ccccc2)C(=O)C1=CNNC(=O)c1ccncc1 [N'-[(E)-[2,4,6-trioxo-1-(2-phenylethyl)-1,3-diazinan-5-ylidene]methyl]-4-pyridinecarbohydrazide] | < 3.52
C/N=c1\ccc2nc3ccccc3n(C)c-2c1 [N,10-dimethyl-2-phenazin-10-iumamine;perchlorate] | 4.83
O=[N+]([O-])c1ccc(/N=N/c2ncc[nH]2)cc1 [N-(imidazol-2-ylideneamino)-4-nitroaniline] | 4.68
COc1ccc(N=C(C(=C(Cl)C(Cl)Cl)[N+](=O)[O-])n2nnc3ccccc32)cc1 [N-[(1E)-1-(1-benzotriazolyl)-3,4,4-trichloro-2-nitrobuta-1,3-dienyl]-4-methoxyaniline] | 4.31
CN(C)c1ccc(N=Cc2nc(-c3ccccc3)oc2O)cc1 [SMR000009577] | 5.28
COc1cccc(C2C3=C(CC(c4ccco4)CC3=O)OC(=N)C2C#N)c1OCc1ccc(F)cc1 (stereo not drawn) [SMR000021029] | < 3.52
CCN(CC)c1ccc(C=NC(C#N)C(=N)C#N)cc1 (stereo not drawn) [SMR000023871] | 3.94
COc1ccc(C2CC(c3ccc(Br)s3)=Nc3ncnn32)cc1OC (stereo not drawn) [SMR000032927] | 5.20
Cc1ccc(C2C3CN(C(C)C)CCC3=C(C#N)C(=N)C2(C#N)C#N)cc1 (stereo not drawn) [SMR000034220] | 5.08
Cc1cc(O)c(C(C)C)cc1Nc1csc(=O)[nH]1 [SMR000034713] | 4.46
CC1=NC(c2ccccc2)C(C#N)(C#N)C(C#N)(C#N)C1 (stereo not drawn) [SMR000037705] | 5.61
COc1cc(OC)c(C2C3=C(CC(C)(C)CC3=O)OC(=N)C2C#N)cc1OC (stereo not drawn) [SMR000054706] | < 3.52
C=c1[nH]n(-c2cccc(C(=O)O)c2)c(=O)c1=CC=Cc1ccco1 [SMR000113614] | 4.62
COc1ccc(C=C2CCCC(C(=O)C(F)(F)F)C2=O)cc1 (stereo not drawn) [SMR000142699] | 4.38
Oc1ccc2ccccc2c1CN=Nc1nnc(-c2ncc[nH]2)c2ccccc12 [SMR000151639] | 5.61
C(=NNC(=Nc1ccccc1)c1ccccn1)c1ccccn1 [SMR000174637] | 4.02
CN1CCC2(CC1)C(C#N)C(=N)NC(=S)C2C#N (stereo not drawn) [SMR000211480] | 5.07
O=C(c1ccccc1)c1[nH]n(-c2ccccc2)c2c(O)n(-c3ccccc3Cl)c(=O)c1-2 [SMR000212371] | < 3.52

SMILES | pEC50
COc1ccc(N=CCC(=O)c2ccc(C)cc2)cc1OC [SMR000269732] | < 3.52
CCCCN1C(=O)/C(=C2/Sc3ccccc3N2C)SC1=Nc1nnc[nH]1 [SMR000282142] | 4.41
COC(=O)c1ccc(-n2c(C)cc(CN=Nc3nc(C)cc(=O)[nH]3)c2C)cc1 [SMR000364461] | < 3.52
O=C(N/N=C/C1C=C(Cl)C=C([N+](=O)[O-])C1=O)c1ccccc1NS(=O)(=O)c1cccs1 (stereo not drawn) [SMR000364876] | 5.81
Cc1cc(C(=O)NN=CC2C=C(Cl)C=C([N+](=O)[O-])C2=O)[nH]n1 (stereo not drawn) [SMR000414694] | < 3.52
O=C1NC(=O)N(CCc2ccccc2)C(=O)C1=CNNC(=O)c1ccccc1 [SMR000433912] | 3.82
Cn1c(=O)[nH]c(=O)c2c1nc(N=NC=C(Br)Cc1ccccc1)n2CCO [SMR000436442] | 4.26
COc1ccccc1N1C(=O)NC(=O)C(=Cc2c[nH]c3ccccc23)C1=O [SMR000495900] | < 3.52
Cc1cc(-c2ccccc2)nc(N=NCc2ccc(O)cc2O)n1 [SMR000513422] | 4.27
Cc1[nH]n(C(N)=S)c(=O)c1N=Nc1c(Cl)cc([N+](=O)[O-])cc1Cl [SMR000514008] | 4.07
CC1(C)CC(=O)C2=C(C1)OC(=N)C(C#N)C2c1ccc2c(c1)OCO2 (stereo not drawn) [SMR000514966] | < 3.52
O=C1C=CC(/C=C/c2nc(O)c([N+](=O)[O-])c(=O)[nH]2)C=C1O (stereo not drawn) [SMR000524347] | 3.75
c1ccc(C2=NNC(c3ccccn3)N=N2)nc1 (stereo not drawn) [SMR000549436] | 4.65
CN(C)c1ccc(C=NN(CCC(=O)NC(C)(C)C)C2=NS(=O)(=O)c3ccccc32)cc1 [SMR000556213] | 4.44
O=C1NC(=O)N(c2ccc(F)cc2)C(=O)C1=Cc1c[nH]c2ccccc12 [SMR000556295] | < 3.52
Cn1cc(C=C2C(=O)NC(=O)N(c3ccccc3)C2=O)c2ccccc21 [SMR000559087] | 5.36
O=C1N=C(N2C=CC(c3ccncc3)C=C2)C(=CN=NC(=O)c2ccccc2O)S1 [SMR000646350] | 4.97
CN(C)[C@@H]1C(=O)C(C(N)=O)C(=O)[C@@]2(O)C(=O)C3C(=O)c4c(O)cccc4[C@@](C)(O)C3C(O)C12 (stereo partly drawn) [SMR000875333] | 4.69
C=CC(=O)N1CCCC(n2nc(-c3ccc(Oc4ccccc4)cc3)c3c(N)ncnc32)C1 (stereo not drawn) [US8497277, 4] | < 3.52
COC(=O)Cn1cc(C=C2C(=O)NC(=O)N(c3ccccc3)C2=O)c2ccccc21 [[3-(2,4,6-Trioxo-1-phenyl-tetrahydro-pyrimidin-5-ylidenemethyl)-indol-1-yl]-acetic acid methyl ester] | 3.84
CCOC(=O)c1c(NC=C2C(=O)NC(=S)NC2=O)sc(C)c1C [ethyl 2-[[4,6-bis(oxidanylidene)-2-sulfanylidene-1,3-diazinan-5-yl]methylideneamino]-4,5-dimethyl-thiophene-3-carboxylate] | < 3.52
COC(=O)c1[nH]c2cc(OC)c(OC)cc2c1CN=Nc1ccccc1 [methyl (3Z)-5,6-dimethoxy-3-[(2-phenylhydrazinyl)methylidene]indole-2-carboxylate] | 4.69
